The results in this text go back to US10220008B2, “Treatment and prevention of stroke and other neurological disorders” (STC.UNM, priority 2013, dated 2019).

Entries after “also recorded” stand apart in the source; their conditions may differ. Structures can show the parent of a compound that is named as a salt.

Test [1] relates to primary cortical neurons. The test is described as follows: High-throughput oxygen-glucose deprivation (OGD) screen of the Prestwick Chemical Library, CytotoxGlo dead/live cell protease ratio. In kind it is cell-based, Spraque-Dawley rat. Conditions: pretreatment, 10 μM, pure cortical neurons.
Experimental: The Prestwick Chemical Library (Prestwick Chemical) was screened for neuroprotection in OGD by pre-treating 7 DIV cortical neurons in 96-well dishes with 10 μM compounds for 30 minutes. All liquid handling was automated and performed by a Beckman Coulter Biomek NX multichannel pipettor. The pretreatment medium was transferred to a clean plate for storage and was kept at 37° C. in a 5% CO2 environment during the OGD exposure. After pretreatment, cells were washed 3 times with deoxygenated glucose-free Hank's buffered saline solution (HBSS), pH 7.4, to remove glucose and oxygen and were covered with 100 μl HBSS. HBSS was deoxygenated in a gas washing bottle with 60 liters of 95% nitrogen, 5% CO2 per 250 ml HBSS. HBSS was maintained at 37° C. during deoxygenation in a water bath. Compounds were added to wells and plates were sealed with sealing tape and placed in a 37° C. incubator for 2 hours (OGD). After 2 hours, HBSS was removed and pretreatment medium was returned to the wells. After 24 hours, neuronal death was quantified using CytotoxGlo reagents (Promega) and a Victor^3 V luminometer (Perkin Elmer) according to the manufacturer's instructions. Eight wells per dish were used as DMSO-treated vehicle-only controls. […]
Test [2] concerns primary cortical neurons. In words: Secondary screening: TUNEL apoptosis assay after 2 hours OGD, compounds given at or after reoxygenation. It is filed as cell-based, Spraque-Dawley rat. As to conditions: for dose providing maximum neuroprotection against OGD-induced apoptosis (optimal dose): at reoxygenation after 2 hours OGD; for neuroprotection when administered after reoxygenation onset (time course): optimal dose given 0, 15, 30, 60 minutes after reoxygenation onset after 2 hours OGD. Here is the method: Cortical neurons were obtained from Spraque-Dawley rat embryos at day 18 of gestation. Cortices were triturated and pre-plated 4 times for 30 minutes in 150 mm vacuum-plasma treated dishes (BD). During these pre-plating steps, primarily non-neuronal cells adhere to the dish, thereby enriching the neuronal population. Enriched neurons were plated in Neurobasal medium containing 2% fetal bovine serum (FBS), 25 μM Glutamax, and penicillin-streptomycin (Gibco) in poly-D-lysine-coated white clear-bottomed 96-well plates or 24-well plates (Becton-Dickinson) at a density of 50×10^3/cm^2. Twenty-four hours later (1 day in vitro, 1 DIV), 50% of the medium was replaced with Neurobasal medium, 2% B27 (Gibco), and 4 μM cytosine arabinoside (AraC) (2 μM AraC final). At 5 DIV, 50% of the medium was replaced with Neurobasal, 2% B27. At 7 DIV, cortical cultures were 98% neurons as assessed by microtubule-associated protein 2 (MAP2) antibody labeling and flow cytometry analysis (data not shown). In vitro experiments were performed in quadruplicate and results are shown as means with standard deviation.
Neuroprotection by candidate compounds was assayed by measurement of apoptosis using terminal deoxynucleotidyl transferase dUTP nick end labeling (TUNEL) reagents as described previously.^6 At 7 DIV, primary neurons grown on poly-D-lysine-coated 22 mm-diameter cover slips in 24-well plates underwent 2 hours of OGD and were treated with a range of doses of each compound at reoxygenation. Compounds providing greater than 2-fold protection over vehicle were then administered at the optimal dose after OGD at intervals of 0, 15, 30, and 60 minutes post-reoxygenation.

The subject of test [3] is spontaneously hypertensive rats (SHR). The test is described as follows: Middle cerebral artery occlusion (MCAO) model of transient focal ischemia. In kind it is in vivo, rat. From the text:
All animal procedures were approved by the University of New Mexico Institutional Animal Care and Use Committee and were in compliance with federal guidelines. Male spontaneously hypertensive rats (SHR) weighing 290-300 g were obtained from Charles River Laboratories. Animals were anesthetized with 2% isoflurane inhalant during all surgical procedures. The right common carotid artery (CCA) was ligated approximately 6 mm caudal to the bifurcation of the external and internal carotid arteries. With a vascular clamp in place on the CCA immediately caudal to the bifurcation, an incision was made in the CCA 5 mm caudal to the clamp and a nylon suture (Doccol Corporation) 30 mm in length with a 2-3 mm silicone coated tip (0.39 mm diameter) was advanced into the CCA lumen and secured in place with 2 4-0 silk sutures spaced 3 mm apart and tied loosely around the CCA caudal to the clamp. The clamp was removed and the suture advanced into the internal carotid artery until resistance was felt. In this position, the filament occludes the MCA origin and MCA territory becomes ischemic. The suture was secured with the 2 silk sutures around the CCA. […] Edema-corrected infarct volume was calculated by subtracting the area of non-infarcted tissue in the ipsilateral hemisphere from the total volume of the contralateral hemisphere. Infarct volume was quantified using Image J software.

Consider `CN1CCN2c3ccccc3Cc3ccccc3C2C1` (centres unmarked) [Mianserine hydrochloride], for which, in the test with primary cortical neurons [1], the “neuroprotection in the high-throughput screen (in words)” value is reported as “highly protective”. Moreover, in the test with primary cortical neurons [2] (given at reoxygenation), the “neuroprotection in the secondary screen (in words)” value was “ineffective”.
Take `CC(C)(C)NCC(O)c1cc(Cl)c(N)c(Cl)c1` (centres unmarked) [clenbuterol]: in the test on primary cortical neurons [1], the “neuroprotection in the high-throughput screen (in words)” value is given as “not identified as a neuroprotective compound”.
Consider `C[C@H](COc1ccccc1)N[C@H](C)[C@H](O)c1ccc(O)cc1` (racemic) [Isoxsuprine hydrochloride, 4-{1-hydroxy-2-[(1-methyl-2-phenoxyethyl)amino]propyl}phenol], for which, in test [3] (1 mg/kg IV at onset of reperfusion after 90-minute MCAO, 24 hours reperfusion, vehicle 279±25, n=7), the “total edema-corrected infarct volume” value was 137±18 mm^3. Also, the “reduction of infarct volume versus vehicle” value in test [3] (single dose 1 mg/kg IV at reperfusion) is listed as “reduced infarct volume by half”. The “dose providing maximum neuroprotection against OGD-induced apoptosis (optimal dose)” value (shortened to “dose providing maximum neuroprotection”) in the test with primary cortical neurons [2] (0.01 to 100 nM tested) amounted to 1 nM. The “neuroprotection when administered after reoxygenation onset (time course)” value (from here on “neuroprotection when administered”) in the test with primary cortical neurons [2] is on record as “no loss of efficacy; also recorded: no decrease in neuroprotection; also recorded: no loss of neuroprotection”.
Regarding `NC(=O)OCC(O)COc1ccc(Cl)cc1` (centres unmarked) [Chlorphenesin carbamate], the “dose providing maximum neuroprotection” value with primary cortical neurons [2] (100 to 300 μM tested) was found to be 200000 nM. Moreover, in the test on primary cortical neurons [2], the “neuroprotection when administered” value was “no decrease in neuroprotection; also recorded: no loss of neuroprotection”.
For the molecule `CCNCC(O)c1cccc(O)c1` (centres unmarked) [Etilefrine hydrochloride], in the test with primary cortical neurons [2] (0.01 to 100 nM tested), the “dose providing maximum neuroprotection” value was 1 nM. Also, the “neuroprotection when administered” value with primary cortical neurons [2] (listed as etilifrine, hydrochloride) is “significantly decreased; also recorded: significant decrease in neuroprotection”.
